The numbers were not newly measured in patent publication US11278564B2, “Brain function-improving agent, food, and medicine using lipopolysaccharide” (Control of Innate Immunity Technology Research Association, priority 2017, dated 2022), which cites them from elsewhere.

The conditions of the data set: intraperitoneal injection (NPL 5).

Turning to monophosphoryl lipid A [MPL], the Aβ intracerebral deposition result is reported as “Aβ intracerebral deposition suppressing action” and the learning function result is recorded as “learning function-improving action”.
